Patent US9764002B2, “Dosage regimen for therapeutic method” (MADELEINE PHARMACEUTICALS PTY LTD, priority 2013, dated 2017)
Peptide text beside a SMILES is read from it.

Assays:
clinical = details: human, in vivo
Procedure: A cohort of 10 subjects with stable CHF and undergoing standard of care treatment was treated with the formulation as follows: • i) 2 sentinel subjects were treated with a one stage 6 hour sc infusion of VSDL at 900 μg/h (Subjects 1 and 3) • ii) 5 subjects were treated with a one stage 12 hour sc infusion of VSDL at 900 μg/h (Subjects 102, 103, 104, 105 and 106); and • iii) 3 subjects were treated with a bimodal sc infusion of VSDL at 900 μg/h for 5 hours and then 550 μg/h for 7 hours (Subjects 111, 112 and 114). The dose regimen for this trial was designed using a pharmacokinetic model for VSDL based on prior data. The final model was used to simulate the median and 90% prediction intervals for 1000 patients given VSDL at 900 μg/h for 5 h then 550 μg/h for 7 h. This dose regimen targeted a population value of 10 ng/ml for the period 6-12 h after the start of the infusion. The predictions of the model were compared to observed VSDL concentration data from the three subjects referred to at iii) above. A model where infusion rate (ml/h) and delivered volume (ml) affected KA was an acceptable empirical description of the data. This model reproduced the observed increase in VSDL concentrations at the end of a subcutaneous infusion. The net effect was generally that KA increased with time during subcutaneous infusions. […] The final model had acceptable predictive performance based on the Visual Predictive Checks (allowing for low number of subjects).

[1] = human, in vivo
Procedure: In our clinical studies, lead patients were dosed at 900 μg/h for 6 hours based on the standard calculation shown earlier to reach a target steady state blood plasma concentration of 10 ng/ml and plasma levels of VSDL measured. Six hours is more than five half-lives for VSDL and, as such, should result in a steady state blood plasma concentration. Having verified the target steady state blood plasma concentration from lead patients, then Cohort 1 “Part 1” received 900 μg/h for 12 hours so as to achieve target steady state blood plasma concentration. However, the target steady state blood plasma concentration was not observed and as such the dosing regime required modification. After significant postulation and modelling of the hypothetical behaviour of VSDL, the multimodal dosage regime was developed. Cohort 1 “Part 2” was introduced using the bimodal dosing regime in an effort to reach a steady state blood plasma concentration of 10 ng/ml. Cohort 1 “Part 2” patients received VSDL at 900 μg/h (ie initial dosage rate) for 5 hours (ie initial period), followed by 550 μg/h for 7 hours (ie maintenance dosage rate).

[2] = human, in vivo; remark: listed apart in the source

KA Absorption rate constant, Pop value (clinical): 0.265 h⁻¹ | KARATE Effect of infusion rate of KA, Pop value (clinical): −0.135 | KAVOL Effect of infusion volume on KA, Pop value (clinical): 0.222 | LGT1 Logit F value, Pop value (clinical): −1.05 | V Central volume, Pop value (clinical): 8.93 L | influence of creatinine clearance (CCL) and body mass index (BMI) on VSDL elimination kinetics (clinical): minor | clearance (clinical; CL Clearance, Pop value): 263 mL/min | clearance (clinical; CL Maximum Elimination rate, Pop value): 447 mL/min | V2 Multiplier of V for sc bolus, Pop value (clinical; sc): 1.596 | V3 Multiplier of V for sc infusion, Pop value (clinical; sc): 3.142 | bioavailability (clinical; sc, F Bioavailability, Pop value): 25.9% | plasma concentration reached on continued increase beyond Css [1]: 30 ng/mL | Css reached when the dose was doubled ([1]; sc): 20 ng/mL | steady state blood plasma concentration of VSDL (Css) achieved ([1]; sc): 10 ng/mL
Compound: CC(C)C[C@H](NC(=O)[C@H](C)NC(=O)[C@H](C)NC(=O)CNC(=O)[C@H](C)NC(=O)[C@H](CCC(=O)O)NC(=O)[C@H](CCC(=O)O)NC(=O)[C@H](CC(N)=O)NC(=O)[C@@H]1CCCN1C(=O)[C@H](CCC(=O)O)NC(=O)[C@H](CO)NC(=O)[C@H](CC(C)C)NC(=O)[C@@H](NC(=O)[C@H](CCC(N)=O)NC(=O)[C@@H]1CCCN1C(=O)[C@@H]1CCCN1C(=O)[C@@H](NC(=O)[C@@H](NC(=O)[C@@H](N)CCC(=O)O)C(C)C)C(C)C)C(C)C)C(=O)N[C@@H](CO)C(=O)N1CCC[C@H]1C(=O)N[C@@H](CC(C)C)C(=O)N1CCC[C@H]1C(=O)N[C@@H](CCC(=O)O)C(=O)N[C@H](C(=O)N1CCC[C@H]1C(=O)N1CCC[C@H]1C(=O)N[C@@H](Cc1c[nH]c2ccccc12)C(=O)N[C@H](C(=O)NCC(=O)N[C@@H](CCC(=O)O)C(=O)N[C@H](C(=O)N[C@@H](CO)C(=O)N1CCC[C@H]1C(=O)N[C@@H](C)C(=O)N[C@@H](CCC(N)=O)C(=O)N[C@@H](CCCNC(=N)N)C(=O)O)C(C)C)[C@@H](C)O)C(C)C [VSDL] (H-EVVPPQVLSEPNEEAGAALSPLPEVPPWTGEVSPAQR-OH; N-terminus and C-terminus assumed)
symptomatic hypotension from blood pressure drops [2]: none of these resulted in symptomatic hypotension
